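These data come from cells grown in 96-well plates and exposed to compound for 48 hours at five concentrations. GI50 is the concentration that inhibits growth by half.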 The source made the active and inactive calls. No stated cut-off is given here; in the data, active = GI50 up to about 1.1 µM and inactive = higher.
Columns and labels:
Assay in all cases: DTP human tumour cell line panel, 48 h
TK-10 = system: TK-10
SNB-75 = system: SNB-75
HL-60 = system: HL-60
MCF7 = system: MCF7
OVCAR-5 = system: OVCAR-5
SK-MEL-5 = system: SK-MEL-5
T47D = system: T47D
M14 = system: M14
PC-3 = system: PC-3
SF-268 = system: SF-268
CAKI-1 = system: CAKI-1
MDA-MB-231 = system: MDA-MB-231
DU-145 = system: DU-145
SK-OV-3 = system: SK-OV-3
SF-539 = system: SF-539
BT-549 = system: BT-549
SK-MEL-2 = system: SK-MEL-2
SF-295 = system: SF-295
HOP-92 = system: HOP-92
NCI-H460 = system: NCI-H460
ACHN = system: ACHN
COLO 205 = system: COLO 205
SR = system: SR
K562 = system: K562
NCI-H23 = system: NCI-H23
HCC 2998 = system: HCC 2998
SW-620 = system: SW-620
SN12C = system: SN12C
UACC-62 = system: UACC-62
NCI-H522 = system: NCI-H522
HCT-15 = system: HCT-15
KM12 = system: KM12
Hs-578T = system: Hs-578T
OVCAR-3 = system: OVCAR-3
OVCAR-8 = system: OVCAR-8
A498 = system: A498
HOP-62 = system: HOP-62
HCT-116 = system: HCT-116
NCI-H226 = system: NCI-H226
UACC-257 = system: UACC-257
UO-31 = system: UO-31
EKVX = system: EKVX
OVCAR-4 = system: OVCAR-4
MDA-N = system: MDA-N
RPMI-8226 = system: RPMI-8226
786-0 = system: 786-0
CCRF-CEM = system: CCRF-CEM
LOX IMVI = system: LOX IMVI
MOLT-4 = system: MOLT-4
IGROV-1 = system: IGROV-1
RXF 393 = system: RXF 393
SNB-19 = system: SNB-19
MDA-MB-435 = system: MDA-MB-435
NCI/ADR-RES = system: NCI/ADR-RES
U-251 = system: U-251
A549 = system: A549
SK-MEL-28 = system: SK-MEL-28
Malme-3M = system: Malme-3M
HT-29 = system: HT-29

S=C1NC2=C(COC/C2=C\c2ccccc2Cl)C(c2ccccc2Cl)N1 (centres undefined)
GI50 (TK-10): 55.8 µM (inactive)
GI50 (SNB-75): 49.5 µM (inactive)
GI50 (HL-60): 11.4 µM (inactive)
GI50 (MCF7): 16.4 µM (inactive)
GI50 (OVCAR-5): > 100 µM (inactive)
GI50 (SK-MEL-5): 15.6 µM (inactive)
GI50 (T47D): 41.5 µM (inactive)
GI50 (M14): 25.8 µM (inactive)
GI50 (PC-3): 14.3 µM (inactive)
GI50 (SF-268): 51.4 µM (inactive)
GI50 (CAKI-1): 73.8 µM (inactive)
GI50 (MDA-MB-231): > 100 µM (inactive)
GI50 (DU-145): 70.8 µM (inactive)
GI50 (SK-OV-3): > 100 µM (inactive)
GI50 (SF-539): 34.9 µM (inactive)
GI50 (BT-549): 48.8 µM (inactive)
GI50 (SK-MEL-2): 21.2 µM (inactive)
GI50 (SF-295): 35.2 µM (inactive)
GI50 (HOP-92): 36.4 µM (inactive)
GI50 (NCI-H460): 18.8 µM (inactive)
GI50 (ACHN): 34.4 µM (inactive)
GI50 (COLO 205): 18.5 µM (inactive)
GI50 (SR): 2.84 µM (inactive)
GI50 (K562): 14.9 µM (inactive)
GI50 (NCI-H23): 34.9 µM (inactive)
GI50 (HCC 2998): 6.98 µM (inactive)
GI50 (SW-620): 25.5 µM (inactive)
GI50 (SN12C): 33 µM (inactive)
GI50 (UACC-62): 65.3 µM (inactive)
GI50 (NCI-H522): 29.6 µM (inactive)
GI50 (HCT-15): 16.8 µM
GI50 (KM12): 11 µM (inactive)
GI50 (Hs-578T): > 100 µM (inactive)
GI50 (OVCAR-3): 32.1 µM (inactive)
GI50 (OVCAR-8): 29.8 µM (inactive)
GI50 (A498): 80 µM (inactive)
GI50 (HOP-62): 61.4 µM (inactive)
GI50 (HCT-116): 17.5 µM (inactive)
GI50 (NCI-H226): 27.4 µM (inactive)
GI50 (UACC-257): 56 µM (inactive)
GI50 (UO-31): 19.5 µM (inactive)
GI50 (EKVX): 33.2 µM (inactive)
GI50 (OVCAR-4): 31.3 µM (inactive)
GI50 (MDA-N): 32.7 µM (inactive)
GI50 (RPMI-8226): 5.26 µM (inactive)
GI50 (786-0): 36 µM (inactive)
GI50 (CCRF-CEM): 8.75 µM (inactive)
GI50 (LOX IMVI): 21.2 µM (inactive)
GI50 (MOLT-4): 7.5 µM (inactive)
GI50 (IGROV-1): 39.1 µM (inactive)
GI50 (RXF 393): 33.3 µM (inactive)
GI50 (SNB-19): 50.5 µM (inactive)
GI50 (MDA-MB-435): 25.7 µM (inactive)
GI50 (NCI/ADR-RES): 21.2 µM (inactive)
GI50 (U-251): 25.1 µM (inactive)

Cc1nc(-n2[nH]c(C)c(CCO)c2=O)[nH]c(=O)c1CCO
GI50 (TK-10): > 100 µM (inactive)
GI50 (SNB-75): > 100 µM (inactive)
GI50 (HL-60): > 100 µM (inactive)
GI50 (MCF7): > 100 µM (inactive)
GI50 (OVCAR-5): > 10 µM (inactive)
GI50 (SK-MEL-5): > 100 µM (inactive)
GI50 (T47D): > 100 µM (inactive)
GI50 (M14): > 100 µM (inactive)
GI50 (PC-3): > 100 µM (inactive)
GI50 (SF-268): > 100 µM (inactive)
GI50 (CAKI-1): > 100 µM (inactive)
GI50 (MDA-MB-231): > 100 µM (inactive)
GI50 (DU-145): > 100 µM (inactive)
GI50 (SK-OV-3): > 100 µM (inactive)
GI50 (SF-539): > 100 µM (inactive)
GI50 (BT-549): > 100 µM (inactive)
GI50 (SF-295): > 100 µM (inactive)
GI50 (HOP-92): > 100 µM (inactive)
GI50 (NCI-H460): > 100 µM (inactive)
GI50 (A549): > 100 µM (inactive)
GI50 (ACHN): > 100 µM (inactive)
GI50 (SK-MEL-28): > 100 µM (inactive)
GI50 (COLO 205): > 100 µM (inactive)
GI50 (SR): > 100 µM (inactive)
GI50 (K562): > 100 µM (inactive)
GI50 (NCI-H23): > 100 µM (inactive)
GI50 (HCC 2998): > 100 µM (inactive)
GI50 (SW-620): > 100 µM (inactive)
GI50 (SN12C): > 100 µM (inactive)
GI50 (UACC-62): > 100 µM (inactive)
GI50 (NCI-H522): > 100 µM (inactive)
GI50 (Malme-3M): < 0.01 µM (active)
GI50 (HCT-15): > 100 µM
GI50 (KM12): > 100 µM (inactive)
GI50 (Hs-578T): > 100 µM (inactive)
GI50 (OVCAR-3): > 100 µM (inactive)
GI50 (OVCAR-8): > 100 µM (inactive)
GI50 (A498): 93.1 µM (inactive)
GI50 (HOP-62): > 100 µM (inactive)
GI50 (HCT-116): > 100 µM (inactive)
GI50 (NCI-H226): > 100 µM (inactive)
GI50 (UACC-257): > 100 µM (inactive)
GI50 (UO-31): > 100 µM (inactive)
GI50 (EKVX): > 100 µM (inactive)
GI50 (OVCAR-4): > 100 µM (inactive)
GI50 (MDA-N): > 100 µM (inactive)
GI50 (RPMI-8226): > 100 µM (inactive)
GI50 (HT-29): > 100 µM (inactive)
GI50 (786-0): > 100 µM (inactive)
GI50 (CCRF-CEM): > 100 µM (inactive)
GI50 (LOX IMVI): > 100 µM (inactive)
GI50 (MOLT-4): > 100 µM (inactive)
GI50 (IGROV-1): > 100 µM (inactive)
GI50 (RXF 393): > 100 µM (inactive)
GI50 (SNB-19): > 100 µM (inactive)
GI50 (MDA-MB-435): > 100 µM (inactive)
GI50 (NCI/ADR-RES): > 100 µM (inactive)
GI50 (U-251): > 100 µM (inactive)

O=C(/C=C\c1ccsc1)c1ccccc1
GI50 (TK-10): 15 µM (inactive)
GI50 (SNB-75): 10.1 µM (inactive)
GI50 (HL-60): 0.182 µM (active)
GI50 (MCF7): 1.74 µM (inactive)
GI50 (OVCAR-5): 16.1 µM (inactive)
GI50 (SK-MEL-5): 13.8 µM (inactive)
GI50 (T47D): 5.31 µM (inactive)
GI50 (M14): 8.47 µM (inactive)
GI50 (PC-3): 11.1 µM (inactive)
GI50 (SF-268): 6.9 µM (inactive)
GI50 (CAKI-1): 3.71 µM (inactive)
GI50 (MDA-MB-231): 4.17 µM (inactive)
GI50 (DU-145): 12.8 µM (inactive)
GI50 (SK-OV-3): 17.1 µM (inactive)
GI50 (SF-539): 7.06 µM (inactive)
GI50 (BT-549): 12.6 µM (inactive)
GI50 (SK-MEL-2): 16.7 µM (inactive)
GI50 (SF-295): 15.8 µM (inactive)
GI50 (HOP-92): 17.6 µM (inactive)
GI50 (NCI-H460): 11.4 µM (inactive)
GI50 (ACHN): 8.05 µM (inactive)
GI50 (SK-MEL-28): 12.4 µM (inactive)
GI50 (COLO 205): 16.2 µM (inactive)
GI50 (SR): 2.38 µM (inactive)
GI50 (K562): 4 µM (inactive)
GI50 (NCI-H23): 5.7 µM (inactive)
GI50 (HCC 2998): 9.44 µM (inactive)
GI50 (SW-620): 2.91 µM (inactive)
GI50 (SN12C): 12 µM (inactive)
GI50 (UACC-62): 12.2 µM (inactive)
GI50 (NCI-H522): 1.68 µM (inactive)
GI50 (HCT-15): 3.61 µM
GI50 (KM12): 2.97 µM (inactive)
GI50 (Hs-578T): 5.35 µM (inactive)
GI50 (OVCAR-3): 14.7 µM (inactive)
GI50 (OVCAR-8): 8.99 µM (inactive)
GI50 (A498): 5.31 µM (inactive)
GI50 (HOP-62): 16.1 µM (inactive)
GI50 (HCT-116): 3.85 µM (inactive)
GI50 (NCI-H226): 16.5 µM (inactive)
GI50 (UACC-257): 16.6 µM (inactive)
GI50 (UO-31): 7.1 µM (inactive)
GI50 (EKVX): 12.9 µM (inactive)
GI50 (OVCAR-4): 3.94 µM (inactive)
GI50 (MDA-N): 12.4 µM (inactive)
GI50 (RPMI-8226): 2.22 µM (inactive)
GI50 (HT-29): 4.06 µM (inactive)
GI50 (786-0): 7.21 µM (inactive)
GI50 (LOX IMVI): 2.21 µM (inactive)
GI50 (MOLT-4): 2.94 µM (inactive)
GI50 (IGROV-1): 6.9 µM (inactive)
GI50 (RXF 393): 5.75 µM (inactive)
GI50 (SNB-19): 13.2 µM (inactive)
GI50 (MDA-MB-435): 10.6 µM (inactive)
GI50 (NCI/ADR-RES): 12.3 µM (inactive)
GI50 (U-251): 3.78 µM (inactive)

Source: ChEMBL document CHEMBL1201862, “PubChem BioAssay data set” (2004)
